Reference: ChEMBL document CHEMBL1130786, “Sulfonamide-based hydroxamic acids as potent inhibitors of mouse macrophage metalloelastase” (Bioorg Med Chem Lett, 1998)

What follows are molecules tested against Macrophage metalloelastase (Mus musculus, UniProt P34960) (assay: Inhibitory activity against mouse macrophage metalloelastase (MME) using [3H]elastin as a substrate).
Chain of Macrophage metalloelastase (P34960 whole entry): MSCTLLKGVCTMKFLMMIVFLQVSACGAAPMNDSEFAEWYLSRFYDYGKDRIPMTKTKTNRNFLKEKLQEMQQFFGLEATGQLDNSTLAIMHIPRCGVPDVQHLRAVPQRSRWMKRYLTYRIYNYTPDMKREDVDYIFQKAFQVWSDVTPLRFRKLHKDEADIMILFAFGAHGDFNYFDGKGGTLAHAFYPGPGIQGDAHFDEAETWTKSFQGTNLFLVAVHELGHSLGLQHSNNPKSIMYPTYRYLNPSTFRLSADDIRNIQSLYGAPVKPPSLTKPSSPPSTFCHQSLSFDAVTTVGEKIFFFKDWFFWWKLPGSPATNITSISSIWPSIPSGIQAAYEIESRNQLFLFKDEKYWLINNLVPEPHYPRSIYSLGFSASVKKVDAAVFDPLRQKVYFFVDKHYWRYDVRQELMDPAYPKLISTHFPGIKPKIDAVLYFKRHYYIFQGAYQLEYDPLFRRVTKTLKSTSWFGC

| SMILES | IC50 [nM] |
| --- | --- |
| COc1ccc(S(=O)(=O)N(Cc2ccccc2)[C@@H](C)C(=O)NO)cc1 | 35 |
| CC[C@H](C)C[C@H](C(=O)NO)N(Cc1ccccc1)S(=O)(=O)c1ccc(OC)cc1 | 16 |
| COc1ccc(S(=O)(=O)N(Cc2ccccc2)[C@H](CCCCNC(=O)Oc2ccccc2)C(=O)NO)cc1 | 67 |
| COc1ccc(S(=O)(=O)N(Cc2ccccc2)[C@@H](C(=O)NO)C2CCNCC2)cc1 | > 100 |
| COc1ccc(S(=O)(=O)N(Cc2ccccc2)C(C)C(=O)NO)cc1 (stereo not given) | 13 |
| COc1ccc(S(=O)(=O)N(Cc2ccccc2)[C@@H](C(=O)NO)c2ccccc2)cc1 | 31 |
| COc1ccc(S(=O)(=O)N(Cc2ccccc2)[C@@H](C(=O)NO)C2CCCC2)cc1 | 15 |
| CC[C@@H](C)C[C@H](C(=O)NO)N(Cc1ccccc1)S(=O)(=O)c1ccc(OC)cc1 | 4.8 |

Further lines, results first:

| IC50 [nM] | SMILES |
| --- | --- |
| 7.7 | COc1ccc(S(=O)(=O)N(Cc2cccnc2)[C@@H](C(=O)NO)C(C)C)cc1 [CGS-27023A] |
| 13 | COc1ccc(S(=O)(=O)N(Cc2ccccc2)[C@H](CC(C)C)C(=O)NO)cc1 |
| 37 | COc1ccc(S(=O)(=O)N(Cc2ccccn2)[C@H](C(=O)NO)C(C)C)cc1 |
| 6 | COc1ccc(S(=O)(=O)N(Cc2ccccn2)[C@@H](C(=O)NO)C(C)C)cc1 |
| 16 | COc1ccc(S(=O)(=O)N(Cc2ccccc2)C(C(=O)NO)C(C)C)cc1 (stereo not given) |
| 4.9 | COc1ccc(S(=O)(=O)N(Cc2ccccc2)[C@@H](C(=O)NO)C(C)C)cc1 |
| 9.6 | COc1ccc(S(=O)(=O)N(Cc2ccccc2)[C@H](C)C(=O)NO)cc1 |
| 6.9 | COc1ccc(S(=O)(=O)N(Cc2ccccn2)[C@H](CC(C)C)C(=O)NO)cc1 |

The molecules below were run against Macrophage metalloelastase (Mus musculus) (UniProt P34960) (assay: Inhibitory activity against mouse macrophage metalloelastase (MME) at 100 nM concentration using [3H]elastin as a substrate).
Chain of Macrophage metalloelastase (Mus musculus) (P34960 110-473 limits assumed): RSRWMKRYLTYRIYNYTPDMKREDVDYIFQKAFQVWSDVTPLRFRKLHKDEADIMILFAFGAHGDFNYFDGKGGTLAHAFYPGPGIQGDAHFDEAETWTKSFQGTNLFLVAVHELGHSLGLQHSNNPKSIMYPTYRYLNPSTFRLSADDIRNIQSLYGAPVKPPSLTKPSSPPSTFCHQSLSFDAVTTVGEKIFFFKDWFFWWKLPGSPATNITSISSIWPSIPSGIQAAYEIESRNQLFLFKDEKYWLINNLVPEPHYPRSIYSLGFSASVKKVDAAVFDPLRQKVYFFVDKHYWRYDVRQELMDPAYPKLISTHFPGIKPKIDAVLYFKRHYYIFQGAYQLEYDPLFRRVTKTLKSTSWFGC

| SMILES | inhibition [%] |
| --- | --- |
| CC(C)CN(CC(=O)NO)S(=O)(=O)c1ccc(Cl)cc1 | 68 |
| CC(C)CN(CC(=O)NO)S(=O)(=O)c1ccc(N)cc1 | 22 |
| Cc1ccc(S(=O)(=O)N(CC(=O)NO)CC(C)C)cc1 | 56 |
| CC(C)CN(CC(=O)NO)S(=O)(=O)c1ccc(F)cc1 | 22 |
| CCOCCOc1ccc(S(=O)(=O)N(CC(=O)NO)CC(C)C)cc1 | 69 |
| CC(C)CN(CC(=O)NO)S(=O)(=O)c1ccc(N(C)C)cc1 | 34 |
| COc1ccc(S(=O)(=O)N(CC(=O)NO)Cc2ccc(-c3ccccc3)cc2)cc1 | 86 |
| CC(C)CN(CC(=O)NO)S(=O)(=O)c1ccccc1 | 27 |

The next lines start with the values.

| inhibition [%] | SMILES |
| --- | --- |
| 76 | COc1ccc(S(=O)(=O)N(CC(=O)NO)Cc2ccc(Cl)cc2)cc1 |
| 92 | COc1ccc(S(=O)(=O)N(CC(=O)NO)Cc2ccncc2)cc1 |
| 77 | COc1ccc(S(=O)(=O)N(CC(=O)NO)CC2CCCCC2)cc1 |
| 74 | COc1ccc(S(=O)(=O)N(CC(=O)NO)Cc2ccccc2)cc1 |
| 80 | COc1ccc(S(=O)(=O)N(CC(=O)NO)Cc2cccnc2)cc1 |
| 35 | CCC(C)N(CC(=O)NO)S(=O)(=O)c1ccc(OC)cc1 (stereo not given) |
| 89 | COc1ccc(CN(CC(=O)NO)S(=O)(=O)c2ccc(OC)cc2)cc1 |
| 13 | COc1ccc(S(=O)(=O)N(CC(=O)NO)C2CCCCC2)cc1 |
| 70 | COc1ccc(S(=O)(=O)N(CC(=O)NO)CC(C)C)cc1 |
| 88 | COc1ccc(S(=O)(=O)N(CC(=O)NO)Cc2ccccn2)cc1 |
| 0 | COc1ccc(S(=O)(=O)NCC(=O)NO)cc1 |
| 0 | COc1ccc(S(=O)(=O)N(CC(=O)NO)C(C)C)cc1 |
| 83 | COc1ccc(S(=O)(=O)N(CCCCc2ccccc2)CC(=O)NO)cc1 |
| 50 | COc1ccc(S(=O)(=O)N(CC(=O)NO)Cc2ccc3ccccc3n2)cc1 |
| 75 | COc1ccc(S(=O)(=O)N(CC(=O)NO)Cc2cccc(OC)c2)cc1 |
| 88 | COc1ccc(S(=O)(=O)N(CCc2ccccc2)CC(=O)NO)cc1 |
| 79 | COc1ccc(S(=O)(=O)N(CCC2CCCCC2)CC(=O)NO)cc1 |
| 11 | COc1ccc(S(=O)(=O)N(CCC(C)C)CC(=O)NO)cc1 |
| 82 | COc1ccc(S(=O)(=O)N(CC(=O)NO)Cc2ccc(C)cc2)cc1 |

What follows are molecules tested against Macrophage metalloelastase (Mus musculus) (UniProt P34960) (assay: Inhibitory activity against mouse macrophage metalloelastase (MME) using [3H]elastin as a substrate; NI means no inhibition at 100 nM concentration).

| inhibition | SMILES |
| --- | --- |
| No inhibition | COc1ccc(S(=O)(=O)N(Cc2cccnc2)[C@@H](C(=O)NOCc2ccccc2)C(C)C)cc1 |
| No inhibition | COc1ccc(S(=O)(=O)N(Cc2cccnc2)[C@@H](C(=O)O)C(C)C)cc1 |
